Results taken from patent publication US20060189684A1, “3-Phenylfuran-2-one derivatives as cox-2 inhibitor” (priority 2003, published 2006).

Tests used:
COX-1 = molecular target: T1, COX-1 (Homo sapiens, UniProt P23219); assay: COX-1 activity in human whole blood (TXB2, calcium ionophore A23187); assay type: cell-based; conditions: 24 h at 37° C., A23187 25 μM, TXB2 by ELISA
T1 construct: from tissue; host or cells: fresh heparinized human whole blood from healthy volunteers
Method: (§1) COX-1 and COX-2 Activities in Human Whole Blood
Fresh blood from healthy volunteers who had not taken any non-steroidal anti-inflammatory drugs for at least 7 days prior to blood extraction was collected in heparinized tubes (20 units of heparin per ml). For the COX-1 activity determination, 500 μl aliquots of blood were incubated with either 5 μl vehicle (dimethylsulphoxide) or 5 μl of a test compound solution for 24 h at 37° C. Calcium ionophore A23187 (25 μM) was added 20 min before the incubation was ended. Plasma was separated by centrifugation (10 min at 13000 rpm) and kept at −30° C. until TXB2 levels were measured using an enzyme immunoassay kit (ELISA).
The effect of the compounds was evaluated by incubating each compound at five to six different concentrations with triplicate determinations. IC50 values were obtained by non-linear regression using InPlot, GraphPad software on an IBM computer.

COX-2 = molecular target: T2, COX-2 (Homo sapiens, UniProt P35354); assay: COX-2 activity in human whole blood (PGE2, LPS-induced); assay type: cell-based; conditions: for IC50: human whole blood, LPS 10 μg/ml, 24 h at 37° C., PGE2 by ELISA; for Ratio COX-1/COX-2: ratio of human whole blood IC50 values
T2 construct: blood were incubated in the presence of LPS (10 μg/ml) for 24 h at 37° C. in order to induce the COX-2 expression; from tissue; host or cells: fresh heparinized human whole blood from healthy volunteers, LPS-stimulated
T2 sequence (P35354 18-604): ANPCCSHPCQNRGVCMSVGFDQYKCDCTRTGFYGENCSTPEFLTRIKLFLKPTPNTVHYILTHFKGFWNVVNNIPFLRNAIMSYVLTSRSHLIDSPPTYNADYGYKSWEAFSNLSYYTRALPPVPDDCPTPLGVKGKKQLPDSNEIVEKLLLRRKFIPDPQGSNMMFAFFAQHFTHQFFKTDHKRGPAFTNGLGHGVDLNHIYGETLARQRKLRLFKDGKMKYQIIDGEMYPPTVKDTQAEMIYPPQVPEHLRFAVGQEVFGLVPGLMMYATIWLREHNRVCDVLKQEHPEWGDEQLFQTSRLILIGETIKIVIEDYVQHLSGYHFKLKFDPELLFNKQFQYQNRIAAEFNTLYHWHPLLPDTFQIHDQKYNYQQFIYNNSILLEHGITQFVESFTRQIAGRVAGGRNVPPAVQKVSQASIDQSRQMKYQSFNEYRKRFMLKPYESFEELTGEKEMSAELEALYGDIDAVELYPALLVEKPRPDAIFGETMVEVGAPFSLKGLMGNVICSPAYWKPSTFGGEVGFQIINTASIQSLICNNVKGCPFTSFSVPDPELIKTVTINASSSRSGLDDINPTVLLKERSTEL
Method: as §1
For the COX-2 activity determination, 500 μl aliquots of blood were incubated in the presence of LPS (10 μg/ml) for 24 h at 37° C. in order to induce the COX-2 expression (Patriagnani et al., J. Pharm. Exper. Ther. 271; 1705-1712 (1994)). Plasma was separated by centrifugation (10 min at 13000 rpm) and kept at −30° C. until PGE2 levels were measured using an enzyme immunoassay kit (ELISA). The effects of inhibitors were studied by incubating each compound (5 μl aliquots) at five to six different concentrations with triplicate determinations in the presence of LPS for 24 hours. IC50 values were obtained by non-linear regression using InPlot, GraphPad software on an IBM computer.

T1 sequence (P23219 24-599): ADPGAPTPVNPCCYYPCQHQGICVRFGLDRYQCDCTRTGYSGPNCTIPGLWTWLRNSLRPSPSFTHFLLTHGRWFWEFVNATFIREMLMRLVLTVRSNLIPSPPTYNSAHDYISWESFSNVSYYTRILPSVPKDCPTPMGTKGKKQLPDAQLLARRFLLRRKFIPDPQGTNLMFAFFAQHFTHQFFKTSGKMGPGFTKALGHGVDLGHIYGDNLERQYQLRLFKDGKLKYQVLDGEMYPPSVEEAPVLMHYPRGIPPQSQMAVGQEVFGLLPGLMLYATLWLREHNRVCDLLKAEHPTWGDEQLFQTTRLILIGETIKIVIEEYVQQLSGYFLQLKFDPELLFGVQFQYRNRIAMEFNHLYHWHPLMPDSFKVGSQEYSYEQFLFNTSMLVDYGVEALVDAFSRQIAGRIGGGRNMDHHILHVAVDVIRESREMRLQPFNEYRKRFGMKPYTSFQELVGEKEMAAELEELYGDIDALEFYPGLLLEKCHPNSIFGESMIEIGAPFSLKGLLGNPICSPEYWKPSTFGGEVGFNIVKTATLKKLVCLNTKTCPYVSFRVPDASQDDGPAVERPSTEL

| Compound | IC50 (COX-1) [µM] | IC50 (COX-2) [µM] | Ratio COX-1/COX-2 (COX-2) |
| --- | --- | --- | --- |
| C[S+]([O-])c1ccc(C2=C(c3ccccc3)C(=O)OC2)cc1 (racemic) [4-[4(methylsulfinyl)phenyl]-3-phenylfuran-2(5H)-one (racemate), 4-[4-(Methylsulfinyl)phenyl)-3-phenylfuran-2(6H)-one] | 33.4 |  |  |
| C[S@@+]([O-])c1ccc(C2=C(c3ccccc3)C(=O)OC2)cc1 [4-[4(methylsulfinyl)phenyl]-3-phenylfuran-2(5H)-one (Enantiomer 1a)] | 32.2 | 4.22 | 7.6 |
| C[S@+]([O-])c1ccc(C2=C(c3ccccc3)C(=O)OC2)cc1 [4-[4(methylsulfinyl)phenyl]-3-phenylfuran-2(5H)-one (Enantiomer 1b)] | 37.8 | 2.1 | 18 |
